# Data as given in patent US20130324595A1, “C-GLUCOSIDIC ELLAGITANNIN COMPOUNDS FOR USE FOR ALTERING THE SUPRAMOLECULAR ARRANGEMENT OF ACTIN AND FOR THE TREATMENT OF OSTEOPOROSIS, CANCER, BACTERIAL INFECTION AND VIRAL INFECTION” (priority 2011, published 2013).
# “Also recorded” adds a separate entry of the source. *1 amine or outer side, *2 acyl side, *3 side chain or, on linkers, in order; H or OH if unused. Where a SMILES comes first, the peptide text is derived from it. Bridges are numbered along the chain shown (N, C = ends). [ ]: non-standard residue; d: D form. Trp(2-yl) = O=C([C@H](Cc1c([*:3])[nH]c2ccccc12)N[*:1])[*:2]; Leu(4R-OH,5-OH) = C[C@](O)(CO)C[C@H](N)C(=O)O; cisHyp = O=C(O)[C@@H]1C[C@H](O)CN1
# Legend:
# [1] = test system: bone resorption; settings: by inhibiting calcium release; cited from earlier work
# [2] = test system: actin cytoskeleton in bovine aortic endothelial cells (BAEc); experiment: effect on the actin cytoskeleton (stress fibers) in living BAEc; assay type: cell-based
# Text: The inventors' initial interest in studying these C-glucosidic ellagitannins stems from the premise that the highly pre-organized medium-sized ring-containing multiple-phenol array featured by such natural products should be structurally well-suited to interfere with the construction of protein-made cellular architectures, on top of the list of which are actin filaments and microtubules. The inventors thus decided to probe the latter hypothesis by first examining the effect of a selection of four C-glucosidic ellagitannins on the actin cytoskeleton in living cells. […] The selected compounds were the two most abundant C-glucosidic ellagitannins found in the heartwood of oak species, vescalagin and its C-1 epimer castalagin, and their corresponding two minor congeners, vescalin and castalin, both lacking the hexahydroxydiphenoyl (HHDP) unit at positions 4 and 6 of the glucose core (FIG. 1). The inventors used bovine aortic endothelial cells (BAEc), a well-characterized type of primary cells. Any of the four ellagitannins used at 50 μM rapidly provoked the disappearance of the internal stress fiber network observed in control cells.
# [3] = test system: microtubule network; experiment: alteration of the microtubule network in treated cells; assay type: cell-based
# [4] = test system: osteoclast; settings: cited from earlier work
# [5] = test system: actin (G-actin/F-actin); experiment: in vitro actin polymerization, F-actin (pellet) versus G-actin (supernatant) at steady state; assay type: biochemical; settings: for G-actin/F-actin ratio at steady state: vescalagin 100 μM, cytochalasin D 4 μM, phalloidin 2 μM
# Description: (§1) FIG. 4. A. Actin polymerization at its steady state in both permissive and non-permissive conditions was continued (30 min) in the presence of either alexa633-phalloidin or vescalagin-FITC. […] B. This effect is dose-dependent. C.
# In the same way, quantifying the amount of F-actin (pellet) versus that of G-actin (supernatant) at the steady state was achieved by Western blot after high-speed centrifugation of samples treated with either vescalagin (100 μM), cytochalasin D (4 μM) or phalloidin (2 μM). […] The same effect was observed when using the vescalagin-FITC conjugate (FIG. 4C).
# [6] = test system: actin cytoskeleton; experiment: reversibility of cytoskeletal alterations by washing out; assay type: cell-based
# Text: The vescalagin-induced F-actin disrupting effect seen in BAEc was also observed in fibroblast cells (baby hamster kidney cells, BHK), which also express β-actin as the main actin isoform, as well as in smooth muscle cells (A7r5), which in contrast predominantly express α-actin.
# It rapidly enters cells, and this despite its high hydrophilicity. Its dose-dependent effects on the actin cytoskeleton relies on its interaction with F-actin without any perturbation of the microtubule network. […] The results found by the inventors are consistent with a mode of action through which the binding of vescalagin occurs along the length of the actin filament, probably at the protein-protein interface of the so-polymerized actin supramolecular association. The presence of two analogous polyhydroxylated arene motifs (i.e., the NHTP and HHDP units, see FIG. 1) likely constitutes the key structural feature that enables vescalagin to wind F-actin into balls by engaging it through multiple intra- and/or intermolecular contacts. […] Future studies will be devoted to the elucidation of the vescalagin-actin interaction at the molecular level and to the comparative evaluation of the anti-actin effects of the other C-glucosidic ellagitannins initially screened herein. Moreover, the SPR method the inventors developed using a biotinylated vescalagin conjugate to discriminate the binding of vescalagin to F- versus G-actin confirms the value of the technique for the study of polyphenol-protein interactions. Finally, the inventors have to recall that oak-derived C-glucosidic ellagitannins, including vescalagin, are present in wines as a result of their aging in oak-made barrels.
# [7] = test system: BAEc; experiment: cellular morphology and mitosis, light microscopy; assay type: cell-based, bovine
# Text: (§2) Vescalagin-induced dissolution of stress fibers affected cellular morphology and, eventually, viability. […] Functional consequences on cell behavior translated into impaired endothelial cell wound repair capacity. […] Overall, this ensemble of experimental data illustrates the rapid and sustained effects of vescalagin on cell behavior.
# [8] = test system: BAEc; experiment: propidium iodide (PI) staining, cytotoxicity; assay type: cell-based, bovine; settings: for cytotoxicity by PI staining: 50 μM
# Text: as §2
# [9] = test system: mechanically injured endothelium; experiment: endothelial cell wound repair; assay type: cell-based, bovine
# Text: as §2
# [10] = test system: actin-GFP in BAEc; experiment: live imaging and FRAP on actin-GFP expressing BAEc; assay type: cell-based, bovine; settings: 100 μM
# Description: FIG. 2. Live imaging of BAEc expressing actin-GFP were subjected to FRAP in the absence or presence of vescalagin (100 μM). A. A boxed region (200×100 pixel square) was photobleached [before (t 0″), immediately after (t 38″) and after photobleaching (t 98″)]; and normalized fluorescence intensity in the boxed region is shown for the entire duration of the FRAP experiment. […] B. Quantitation of the results showing the immobile fraction as calculated from the difference between pre- and post-photobleaching intensities (n=6).
# Destabilization of the stress fibers was visualised by the progressive loss of filamentous staining, concomitantly with cell retraction as observed in phase contrast. Noticeably, thick F-actin bundles were maintained. To detect and unveil the internal dynamics of these apparently immobile F-actin bundles, the inventors performed a fluorescence recovery after photobleaching (FRAP) assay on actin-GFP expressing BAEc in the absence or presence of vescalagin (FIG. 2). […] From these experiments, the inventors conclude that vescalagin affects both thin and thick actin fibers, F-actin bundles made of packed actin filaments being less vulnerable to the action of vescalagin than the single filament dendritic meshwork at the cell periphery.
# [11] = test system: F-actin; experiment: phalloidin binding to vescalagin-decorated F-actin (binding site)
# [12] = test system: podosomes in bovine aortic endothelial cells (BAEc); experiment: podosome formation in TGF-β stimulated BAEc; assay type: cell-based; settings: for inhibition of podosome formation: compound added from the beginning of the TGF-β stimulation (24 h) versus last hour
# Description: FIG. 7. Dose responses of endothelial cells following vescalagin or vescalin treatment. BAEc were incubated for 24 hours with TGF-β (which stimulates formation of podosomes), and different concentrations of vescalagin or vescalin were added either from the beginning of the TGF-β stimulation, or during the last hour of stimulation. Cells were then fixed and treated for immunofluorescence analysis. Podosomes were visualized by double staining using phalloidin (a F-actin marker) and cortactin (a podosome marker). The percentage of total cells showing podosomes was then quantified and compared to the control (cells incubated with TGF-β only). A. BAEc were stimulated for 24 hours with TGF-β, and vescalagin or vescalin was added during the last hour of stimulation. B. BAEc were stimulated for 24 hours with TGF-β, and vescalagin or vescalin was added from the beginning of the TGF-β stimulation.
# In this assay, bovine aortic endothelial cells (BAEc) were used. These cells form podosomes following a few hours of incubation with TGF-β. Cells were fixed after 24 hours of stimulation. Two protocols were tested. In the first protocol, cells were stimulated for 24 hours with TGF-β, and vescalagin or vescalin was added during the last hour of stimulation (FIG. 7A). In the second protocol, cells were stimulated for 24 hours with TGF-β, and vescalagin or vescalin was added from the beginning of the TGF-β stimulation (FIG. 7B). In both cases, cells were then fixed and treated for immunofluorescence analysis. Podosomes were visualized by double staining using phalloidin (a F-actin marker) and cortactin (a podosome marker). The percentage of total cells showing podosomes was then quantified and compared to the control (cells incubated with TGF-β only) (FIGS. 7A and 7B).
# [13] = test system: F-actin; experiment: in vitro actin polymerization, high-speed centrifugation, stained pellet; assay type: binding; settings: 30 min at steady state
# Description: as §1
# To explore whether or not the interaction between vescalagin and actin was direct, the inventors set up an in vitro assay based on actin polymerization from a solution of Ca^2+-actin-ATP monomers. Spontaneous polymerization occurs when Ca^2+ is replaced by Mg^2+ provided by the F-actin buffer. The inventors performed high-speed centrifugation of the samples to separate the neo-formed polymers from the monomers to discriminate binding of vescalagin to either F-actin, G-actin or both. To visualize these presumptive molecular associations, the inventors used again the vescalagin-bearing fluoprobe and a fluorescent Alexa633-phalloidin to stain F-actin. Actin polymerization was carried out until it reached its steady state in both permissive and non-permissive conditions (i.e., in the presence or absence of Mg^2+-containing F-buffer). The experiment was then continued for 30 min in the presence of either vescalagin-FITC conjugate or Alexa633-phalloidin, and the formation of actin polymers was then assessed by high-speed centrifugation.
# [14] = test system: osteoclast; settings: cited from earlier work; remark: listed apart in the source
compound,measurement,setting,value
O=C(OC1C(OC(=O)c2cc(O)c(O)c(O)c2Oc2cc3c(c(O)c2O)-c2c(cc(O)c(O)c2O)C(=O)OC(C2OC(=O)c4cc(O)c(O)c(O)c4-c4c(cc(O)c(O)c4O)C(=O)OCC2O)C(C(O)c2c(O)cc4c(c2O)CC(O)C(c2ccc(O)c(O)c2)O4)OC3=O)C(O)OC2COC(=O)c3cc(O)c(O)c(O)c3-c3c(cc(O)c(O)c3O)C(=O)OC21)c1cc(O)c(O)c(O)c1 (stereo not shown) [camelliatannin D],bone resorption,[1],potentially inhibits bone resorption
"C=C1[C@@H](C)[C@H]2[C@H](Cc3ccccc3)NC(=O)[C@]23[C@H](OC(C)=O)/C=C/[C@@](C)(O)C(=O)[C@@H](C)C/C=C/[C@H]3[C@@H]1O [cytochalasin D, reference compound]",effect on actin configuration (stress fibers),"[2]; BAEc, cytochalasin D comparison",also effective
same,alteration of the microtubule network,[3],no alteration of the microtubule network
O=C1O[C@H]2[C@H](O)[C@@H](OC(=O)c3cc(O)c(O)c4c3[C@@H]3C1=CC(=O)C(O)(O)C3(O)O4)[C@H](OC(=O)c1cc(O)c(O)c(O)c1)O[C@@H]2CO (stereo partly shown) [furosin],osteoclast differentiation and function,[4],inhibitory effect
"C[C@@H]1NC(=O)[C@H](C[C@@](C)(O)CO)NC(=O)[C@@H]2Cc3c([nH]c4ccccc34)SC[C@H](NC(=O)[C@@H]([C@H](C)O)NC1=O)C(=O)N1C[C@@H](O)C[C@H]1C(=O)N[C@@H](C)C(=O)N2 [phalloidin, reference compound] (cyclo(A[dT]C[cisHyp]A[Trp(2-yl)][Leu(4R-OH,5-OH)]); thioether 3-6)",G-actin/F-actin ratio at steady state,[5],marked depletion of G-actin
O=C1OCC2OC(=O)c3cc(O)c(O)c(O)c3-c3c(O)c(O)c(O)c4c3C(=O)OC(C2OC(=O)c2cc(O)c(O)c(O)c2-c2c1cc(O)c(O)c2O)C1OC(=O)c2c-4c(O)c(O)c(O)c2C1O (stereo not shown) [vescalagin],relative activity within the series evaluated,[2]; four C-glucosidic ellagitannins,most active compound of the series
same,alteration of the microtubule network,[3],no alteration of the microtubule network
same,reversibility of actin cytoskeleton alterations by washing,"[6]; treatment 1 hour, 100 μM",reversible by washing
same,reversibility of actin cytoskeleton alterations by washing,"[6]; treatment 24 hours, 50 μM",reversible by washing
same,reversal of cytoskeletal alterations by washing out with fresh medium,[6]; within 1 h,completely reversed
same,reversibility of effects on the actin cytoskeleton,"[6]; within 1 h of treatment, up to 100 μM",fully reversible
same,mitosis,[7]; 50 μM,still observed
same,mitosis,[7]; 100 μM,impaired
same,cell morphology,[7]; range of concentrations and incubation times applied,changed their morphology from a well spread to a more retracted appearance
same,cytotoxicity by PI staining,[8]; 6 h,no cytotoxicity
same,cytotoxicity by PI staining,[8]; 24 h,no cytotoxicity
same,cell death (apoptotic nuclei),"[8]; 100 μM, 24 h",irreversible commitment to cell death; also recorded: presence of apoptotic nuclei
same,serum-stimulated healing of mechanically injured endothelium,[9]; 20 μM,reduced by about half
same,cell viability,"[9]; 100 μM, 6 h",still compatible with the maintenance of cell viability
same,repopulation of the denudated area,"[9]; 100 μM, 6 h",remained virtually unpopulated
same,"actin-GFP distribution, live imaging",[10],immediate alteration of actin-GFP distribution at cell margin
same,immobile fraction of actin (FRAP),[10]; n=6,increases the immobile fraction of actin
same,dose dependence of the G-actin depletion,[5],dose-dependent manner
same,G-actin/F-actin ratio at steady state,[5],marked depletion of G-actin
same,binding site on F-actin relative to phalloidin,[11],does not bind at the same site(s) as phalloidin
same,inhibition of podosome formation (percentage of cells showing podosomes),"[12]; 24 h TGF-β, vescalagin versus vescalin",stronger inhibitor activity than vescalin
same,inhibition of podosome formation,[12],less pronounced effects
O=C1O[C@H](CO)[C@@H](O)[C@@H]2OC(=O)c3c(c(O)c(O)c(O)c3-c3c(O)c(O)c(O)c4c3C(=O)O[C@H]2[C@@H]4O)-c2c1cc(O)c(O)c2O [vescalin],inhibition of podosome formation,[12],less pronounced effects
fluorescein isothiocyanate [FITC],binding to F-actin (stained pellet after high-speed centrifugation),[13],no F-actin was detected
roburin C,inhibition of osteoclast differentiation and function,[14],highest potency
roburin D,inhibition of osteoclast differentiation and function,[14],highest potency
